# According to patent publication US8106055B2, “Substituted amide compounds” (Gruenenthal GmbH, priority 2007, dated 2012):
# How the values were obtained:
# [1] = target: T1, serotonin (5-HT) reuptake (Rattus norvegicus, UniProt P31652); assay: Inhibition of serotonin (5HT) reuptake in synaptosomes from rat brain; type: biochemical; details: test concentration of 10 μM; read-out: 5-HT (inhibition of reuptake of serotonin, % inhibition)
# T1 construct: synaptosomes are freshly isolated from areas of the rat brain; from tissue; host or cells: rat brain synaptosomes (P2 fraction)
# T1 sequence (P31652 whole entry): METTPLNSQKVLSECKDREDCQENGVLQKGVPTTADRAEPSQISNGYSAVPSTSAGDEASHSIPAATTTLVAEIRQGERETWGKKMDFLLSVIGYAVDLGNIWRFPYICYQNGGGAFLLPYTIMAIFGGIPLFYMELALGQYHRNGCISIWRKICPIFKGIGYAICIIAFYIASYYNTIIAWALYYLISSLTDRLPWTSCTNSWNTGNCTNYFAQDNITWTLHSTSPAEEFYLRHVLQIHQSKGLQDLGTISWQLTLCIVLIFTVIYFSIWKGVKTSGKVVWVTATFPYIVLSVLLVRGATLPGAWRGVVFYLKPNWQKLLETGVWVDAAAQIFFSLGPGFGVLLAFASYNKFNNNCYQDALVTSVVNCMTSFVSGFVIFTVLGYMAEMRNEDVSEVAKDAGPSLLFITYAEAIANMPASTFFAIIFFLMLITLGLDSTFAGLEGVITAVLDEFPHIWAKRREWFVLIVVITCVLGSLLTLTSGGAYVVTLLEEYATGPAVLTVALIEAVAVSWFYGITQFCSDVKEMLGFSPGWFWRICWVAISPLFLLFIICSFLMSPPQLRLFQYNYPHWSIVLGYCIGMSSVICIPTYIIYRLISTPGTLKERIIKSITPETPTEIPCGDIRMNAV
# Method in brief: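 Compounds screened at 10 μM and reported as percent inhibition of serotonin uptake. Uptake measured in a freshly prepared P2 synaptosomal fraction from rat brain.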
# [2] = target: T2, bradykinin 1 receptor (B1R) of the rat (Rattus norvegicus, UniProt P97583); assay: Functional investigation on the rat bradykinin 1 receptor (B1R), Ca2+ FLIPR assay in CHO K1 rB1R cells; type: cell-based; details: CHO-K1, B1R antagonism rat; test substance 10 μM; Ca2+ FLIPR, CHO K1 rB1R cells; read-out: B1R Ant. r [10 μM] % Inhibition
# T2 construct: expressed in transfected cells; host or cells: CHO K1 cells
# T2 sequence (P97583 1-337): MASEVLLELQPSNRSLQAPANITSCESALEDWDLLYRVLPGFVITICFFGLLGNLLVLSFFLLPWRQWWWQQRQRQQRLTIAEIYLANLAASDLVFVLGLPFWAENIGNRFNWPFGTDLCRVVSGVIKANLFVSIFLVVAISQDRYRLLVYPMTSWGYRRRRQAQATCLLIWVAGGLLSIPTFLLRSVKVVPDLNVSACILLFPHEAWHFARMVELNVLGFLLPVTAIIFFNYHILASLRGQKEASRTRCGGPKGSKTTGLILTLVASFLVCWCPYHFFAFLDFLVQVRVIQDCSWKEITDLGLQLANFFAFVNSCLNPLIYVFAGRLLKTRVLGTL
# Method in brief: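 Fluo-4 Ca2+ readout, peak fluorescence. Stable CHO K1 transfectants; compound pre-incubated 10-20 min, then EC80 agonist—Lys-Des-Arg9-BK for hB1R, Des-Arg9-BK for rB1R. % inhibition vs maximal inhibition; IC50 from multiple concentrations, duplicate/triplicate, ≥2 independent runs.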
SMILES,inhibition at 10 µM [1] [%],inhibition at 10 µM [2] [%]
"CN(C)C(c1cccs1)C1CCC(NC(=O)COCCN(C)S(=O)(=O)c2ccc(Cl)cc2)CC1 (stereo not drawn) [Example 83, 2-(2-(4-chloro-N-methylphenylsulfonamido)ethoxy)-N-(4-((dimethylamino) (thiophen-2-yl)methyl)cyclohexyl)acetamide]",89,11
"COc1cc(C)c(S(=O)(=O)N(C)CCOCC(=O)NCCC2CCC(C(c3cccs3)N(C)C)CC2)c(C)c1 (stereo not drawn) [Example 84, N-(2-(4-((dimethylamino)(thiophen-2-yl)methyl)cyclohexyl)ethyl)-2-(2-(4-methoxy-N,2,6-trimethylphenylsulfonamido)ethoxy)acetamide]",92,103
"CN(C)C(c1cccs1)C1CCC(CCNC(=O)COCCN(C)S(=O)(=O)c2ccc(F)cc2)CC1 (stereo not drawn) [Example 85, N-(2-(4-((dimethylamino)(thiophen-2-yl)methyl)cyclohexyl)ethyl)-2-(2-(4-fluoro-N-methylphenylsulfonamido)ethoxy)acetamide]",98,12
"COc1cc(C)c(S(=O)(=O)N2CCC(OCC(=O)NCC3CCC(C(c4cccs4)N(C)C)CC3)C2)c(C)c1 (stereo not drawn) [Example 86, N-((4-((dimethylamino)(thiophen-2-yl)methyl)cyclohexyl)methyl)-2-(1-(4-methoxy-2,6-dimethylphenylsulfonyl)pyrrolidin-3-yloxy)acetamide]",96,100
"CN(C)C(c1cccc(F)c1)C1CCC(CNC(=O)COCC2CCCCN2S(=O)(=O)c2ccc(Cl)c(Cl)c2)CC1 (stereo not drawn) [Example 87, 2-((1-(3,4-dichlorophenylsulfonyl)piperidin-2-yl)methoxy)-N-((4-((dimethylamino)(3-fluorophenyl)methyl)cyclohexyl)methyl)acetamide]",94,9
"COc1ccc(S(=O)(=O)N2CCCCC2COCC(=O)NCC2CCC(C(c3ccccc3)N(C)C)CC2)cc1 (stereo not drawn) [Example 88, N-((4-((dimethylamino)(phenyl)methyl)cyclohexyl)methyl)-2-((1-(4-methoxyphenylsulfonyl)piperidin-2-yl)methoxy)acetamide]",95,68
"COc1ccc(S(=O)(=O)N2CCCCC2CCOCC(=O)NCC2CCC(C(c3ccccc3)N(C)C)CC2)cc1 (stereo not drawn) [Example 89, N-((4-((dimethylamino)(phenyl)methyl)cyclohexyl)methyl)-2-(2-(1-(4-methoxyphenylsulfonyl)piperidin-2-yl)ethoxy)acetamide]",92,50
"COc1ccc(S(=O)(=O)N2CCCCC2CCOCC(=O)NCC2CCC(C(c3cccs3)N(C)C)CC2)cc1 (stereo not drawn) [Example 90, N-((4-((dimethylamino)(thiophen-2-yl)methyl)cyclohexyl)methyl)-2-(2-(1-(4-methoxyphenylsulfonyl)piperidin-2-yl)ethoxy)acetamide]",94,37
"CN(C)C(c1ccccc1)C1CCC(CNC(=O)COCCN(C)S(=O)(=O)c2cccc(C(F)(F)F)c2)CC1 (stereo not drawn) [Example 91, N-((4-((dimethylamino)(phenyl)methyl)cyclohexyl)methyl)-2-(2-(N-methyl-3-(trifluoromethyl)phenylsulfonamido)ethoxy)acetamide]",93,34
"CN(C)C(c1cccs1)C1CCC(CNC(=O)COCCN(C)S(=O)(=O)c2cccc(C(F)(F)F)c2)CC1 (stereo not drawn) [Example 92, N-((4-((dimethylamino)(thiophen-2-yl)methyl)cyclohexyl)methyl)-2-(2-(N-methyl-3-(trifluoromethyl)phenylsulfonamido)ethoxy)acetamide]",86,1
"CN(C)C(c1cccs1)C1CCC(CNC(=O)COCCN(C)S(=O)(=O)c2ccc(OC(F)(F)F)cc2)CC1 (stereo not drawn) [Example 93, N-((4-((dimethylamino)(thiophen-2-yl)methyl)cyclohexyl)methyl)-2-(2-(N-methyl-4-(trifluoromethoxy)phenylsulfonamido)ethoxy)acetamide]",93,6
"COc1ccc(S(=O)(=O)N2CCC(OCC(=O)NCCC3CCC(C(c4cccs4)N(C)C)CC3)C2)cc1OC (stereo not drawn) [Example 94, 2-(1-(3,4-dimethoxyphenylsulfonyl)pyrrolidin-3-yloxy)-N-(2-(4-((dimethylamino)(thiophen-2-yl)methyl)cyclohexyl)ethyl)acetamide]",88,21
